According to patent publication US20090018215A1, “Fumigant for wood parasitic nematodes and wood fumigation method” (priority 2004, published 2009):
Read-outs that look alike come from different tables or passages of the source.

Test system: Bursaphelenchus xylophilus
Type: in vivo
Conditions: 24 hours

Compound | effect of killing nematodes (control area: methyl iodide as is, injected through injection syringe, 96 g/m^3, 10° C.) | effect of killing nematodes (control area: sulfuryl fluoride alone, 50 g/m^3, 15° C.)
CI [methyl iodide] | 98% | –
O=S(=O)(F)F [sulfuryl fluoride] | – | 89%
